According to PubChem BioAssay AID330 (DTP/NCI, 2004):
Values joined by “and” are separate entries in the source; they are usually repeats but may differ in a detail not shown here. Identical values can stand only once. Toxic doses and inconclusive results are not listed. The calls were made as follows: active = survival T/C of 150% or more; inactive = T/C below 125% in these data. Square brackets hold non-standard residues; d marks the D form. Peptide text beside a SMILES is read from it. ξ: configuration not given here. ξNle = CCCCC(N)C(=O)O

System: P388 leukemia ip, CD2F1 mice, survival T/C
Experiment: NCI In Vivo Anticancer Drug Screen. Data for tumor model P388 Leukemia (intraperitoneal) in CD2F1 (CDF1) mice
Conditions: endpoint: median survival time, higher = longer survival
Outline: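 Mice carrying the transplanted tumor received test compound or vehicle. Survival was recorded in each group, and the value is the treated-group measurement divided by that of the vehicle-treated control group.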

[1] = dose: 50.0 mg/kg/injection, schedule: Q01DX005 (ip), vehicle: Klucel (hydroxypropylcellulose) (HPC)
[2] = dose: 100.0 mg/kg/injection, schedule: Q01DX005 (ip), vehicle: Klucel (hydroxypropylcellulose) (HPC)
[3] = dose: 200.0 mg/kg/injection, schedule: Q01DX005 (ip), vehicle: Klucel (hydroxypropylcellulose) (HPC)
[4] = dose: 60.0 mg/kg/injection, schedule: Q01DX005 (ip), vehicle: saline with Tween-80
[5] = dose: 120.0 mg/kg/injection, schedule: Q01DX005 (ip), vehicle: saline with Tween-80
[6] = dose: 240.0 mg/kg/injection, schedule: Q01DX005 (ip), vehicle: saline with Tween-80
[7] = dose: 50.0 mg/kg/injection, schedule: Q01DX005 (ip), vehicle: saline with Tween-80
[8] = dose: 100.0 mg/kg/injection, schedule: Q01DX005 (ip), vehicle: saline with Tween-80
[9] = dose: 200.0 mg/kg/injection, schedule: Q01DX005 (ip), vehicle: saline with Tween-80
[10] = dose: 100.0 mg/kg/injection, schedule: Q04DX003 (ip), vehicle: saline with Tween-80
[11] = dose: 400.0 mg/kg/injection, schedule: Q04DX003 (ip), vehicle: saline with Tween-80
[12] = dose: 60.0 mg/kg/injection, schedule: Q01DX005 (ip), vehicle: Klucel (hydroxypropylcellulose) (HPC)
[13] = dose: 120.0 mg/kg/injection, schedule: Q01DX005 (ip), vehicle: Klucel (hydroxypropylcellulose) (HPC)
[14] = dose: 240.0 mg/kg/injection, schedule: Q01DX005 (ip), vehicle: Klucel (hydroxypropylcellulose) (HPC)
[15] = dose: 50.0 mg/kg/injection, schedule: Q01DX009 (ip), vehicle: saline with Tween-80
[16] = dose: 100.0 mg/kg/injection, schedule: Q01DX009 (ip), vehicle: saline with Tween-80

Measured: T/C

COc1ccc(-c2c(C#N)cnc(C)c2C)c(OCc2ccccc2)c1OC
inactive: dose: 12.5 mg/kg/injection, schedule: Q01DX009 (ip), vehicle: other 106 % of control | dose: 25.0 mg/kg/injection, schedule: Q01DX009 (ip), vehicle: other 101 % of control | dose: 50.0 mg/kg/injection, schedule: Q01DX009 (ip), vehicle: other 105 % of control | dose: 100.0 mg/kg/injection, schedule: Q01DX009 (ip), vehicle: other 98 % of control | dose: 200.0 mg/kg/injection, schedule: Q01DX009 (ip), vehicle: other 92 % of control

O=C1Oc2ccccc2[C@@H]2[C@H]1[C@@H]1C(=O)Oc3ccccc3[C@@H]12
inactive: [1] 97 % of control | [2] 97 % of control | [3] 100 % of control

O=C(Nc1cccc(C(F)(F)F)c1)Oc1ccc(Cl)c2cccnc12
inactive: [4] 99 % of control | [5] 98 % of control | [6] 105 % of control

CCOc1ccccc1NC(=O)CC(=O)N1N=C(C)C(N=Nc2ccccc2C(=O)O)C1=O (stereo not drawn)
inactive: [7] 108 % of control | [8] 104 % of control | [9] 92 % of control

CC(C)Cn1cnc2c(=S)nc(N)[nH]c21
inactive: dose: 8.0 mg/kg/injection, schedule: Q01DX009 (ip), vehicle: saline with Tween-80 95 % of control | dose: 16.0 mg/kg/injection, schedule: Q01DX009 (ip), vehicle: saline with Tween-80 100 % of control | dose: 32.0 mg/kg/injection, schedule: Q01DX009 (ip), vehicle: saline with Tween-80 100 % of control | dose: 64.0 mg/kg/injection, schedule: Q01DX009 (ip), vehicle: saline with Tween-80 90 % of control | [10] 109 % of control | dose: 264.0 mg/kg/injection, schedule: Q04DX003 (ip), vehicle: saline with Tween-80 100 % of control | [11] 112 % of control | dose: 600.0 mg/kg/injection, schedule: Q04DX003 (ip), vehicle: saline with Tween-80 116 % of control

CC(CCCCCCCC1CC(OS(=O)(=O)O)CCCCCCCCCCCC(OS(=O)(=O)O)CC(OS(=O)(=O)O)CCCCCCCCCCCCCC(=O)O1)OS(=O)(=O)O (stereo not drawn) (tested in a mixture with another compound)
inactive: dose: 25.0 micrograms/kg/injection, schedule: Q01DX005 (ip), vehicle: Klucel (hydroxypropylcellulose) (HPC) 98 % of control | dose: 50.0 micrograms/kg/injection, schedule: Q01DX005 (ip), vehicle: Klucel (hydroxypropylcellulose) (HPC) 103 % of control | dose: 100.0 micrograms/kg/injection, schedule: Q01DX005 (ip), vehicle: Klucel (hydroxypropylcellulose) (HPC) 97 % of control | dose: 200.0 micrograms/kg/injection, schedule: Q01DX005 (ip), vehicle: Klucel (hydroxypropylcellulose) (HPC) 97 % of control

O=C1c2ccccc2C(=O)N1OCc1ccc(-c2ccccc2)cc1
inactive: [1] 96 % of control | [2] 93 % of control

CS/C(=C/c1ccc2ccccc2[n+]1C)N1CCSCC1
inactive: dose: 1.56 mg/kg/injection, schedule: Q01DX005 (ip), vehicle: saline with Tween-80 108 % of control | dose: 3.13 mg/kg/injection, schedule: Q01DX005 (ip), vehicle: saline with Tween-80 113 % of control | dose: 6.25 mg/kg/injection, schedule: Q01DX005 (ip), vehicle: saline with Tween-80 113 % of control

O=C1C2=C(Nc3cc([N+](=O)[O-])ccc3N2)OC1c1cccc([N+](=O)[O-])c1 (stereo not drawn)
inactive: [12] 97 % of control | [13] 96 % of control | [14] 102 % of control

CC1C(N)CC2CC1C2(C)C (stereo not drawn)
inactive: [15] 104 % of control | [16] 112 % of control

N=C(N)Sc1cc(O)c(O)c2ccccc12
inactive: dose: 6.25 mg/kg/injection, schedule: Q01DX005 (ip), vehicle: saline 104 % of control | dose: 12.5 mg/kg/injection, schedule: Q01DX005 (ip), vehicle: saline 109 % of control

COc1ccc(CSC(=S)Nc2ccc(C(F)(F)F)cc2)cc1
inactive: dose: 50.0 mg/kg/injection, schedule: Q01DX009 (ip), vehicle: suspension in saline 110 % of control | dose: 100.0 mg/kg/injection, schedule: Q01DX009 (ip), vehicle: suspension in saline 101 % of control | dose: 200.0 mg/kg/injection, schedule: Q01DX009 (ip), vehicle: suspension in saline 105 % of control

CC(C)C1OC(/C=C/c2ccccc2)OCC1(C)C (stereo not drawn)
inactive: dose: 25.0 mg/kg/injection, schedule: Q04DX003 (ip), vehicle: saline with Tween-80 102 % of control | dose: 50.0 mg/kg/injection, schedule: Q04DX003 (ip), vehicle: saline with Tween-80 102 % of control | [10] 104 % of control | dose: 200.0 mg/kg/injection, schedule: Q04DX003 (ip), vehicle: saline with Tween-80 98 % of control | [11] 102 % of control

CCC(NN)C(=O)OCc1ccccc1 (stereo not drawn)
inactive: [1] 97 % of control | [2] 95 % of control | [3] 103 % of control

CC(=O)NNC(=O)c1ccc2ccccc2n1
inactive: dose: 50.0 mg/kg/injection, schedule: Q01DX009 (ip), vehicle: saline sonified 100 % of control | dose: 100.0 mg/kg/injection, schedule: Q01DX009 (ip), vehicle: saline sonified 104 % of control

O=[N+]([O-])c1ccc(/C=C/C=C/C=C/C=C/c2ccc(S(=O)(=O)F)cc2Cl)c(Cl)c1
inactive: dose: 15.0 mg/kg/injection, schedule: Q01DX005 (ip), vehicle: saline with Tween-80 99 % of control | dose: 30.0 mg/kg/injection, schedule: Q01DX005 (ip), vehicle: saline with Tween-80 104 % of control | [4] 92 % of control and 98 % of control

Cc1ccc(C(c2ccccc2)c2ccc(C)cc2O)c(O)c1
inactive: [15] 118 % of control | [16] 105 % of control

C[N+]1(C)N=C([O-])N(c2ccccc2F)C1=O
inactive: dose: 100.0 mg/kg/injection, schedule: Q04DX003 (ip), vehicle: Klucel (hydroxypropylcellulose) (HPC) 99 % of control | dose: 200.0 mg/kg/injection, schedule: Q04DX003 (ip), vehicle: Klucel (hydroxypropylcellulose) (HPC) 91 % of control

COc1cccc(C(=O)CC[N+](C)(C)C)c1
inactive: dose: 3.13 mg/kg/injection, schedule: Q01DX009 (ip), vehicle: saline with Tween-80 100 % of control | dose: 6.25 mg/kg/injection, schedule: Q01DX009 (ip), vehicle: saline with Tween-80 102 % of control | dose: 12.5 mg/kg/injection, schedule: Q01DX009 (ip), vehicle: saline with Tween-80 103 % of control

COc1cc2c(cc1OC)CC[N+](Cc1ccc([N+](=O)[O-])cc1)=C2
inactive: dose: 12.5 mg/kg/injection, schedule: Q01DX001 (ip), vehicle: saline + alcohol 98 % of control | dose: 25.0 mg/kg/injection, schedule: Q01DX001 (ip), vehicle: saline + alcohol 95 % of control | dose: 50.0 mg/kg/injection, schedule: Q01DX001 (ip), vehicle: saline + alcohol 95 % of control

O=C(CC1=NC2NN(c3ccccc3)C(=O)C2=C1CC(=O)c1ccc(F)cc1)c1ccc(F)cc1 (stereo not drawn)
inactive: [4] 98 % of control | [5] 97 % of control | [6] 97 % of control

COC1/C=C\C=C(/C)C(=O)NC2=CC(=O)C=C(C2=O)C(OC)C(C)CC(OC)C(OC)C(C)/C=C(/C)C1OC(N)=O (stereo not drawn)
inactive: dose: 3.0 mg/kg/injection, schedule: Q01DX009 (ip), vehicle: Klucel (hydroxypropylcellulose) (HPC) 92 % of control | dose: 6.0 mg/kg/injection, schedule: Q01DX009 (ip), vehicle: Klucel (hydroxypropylcellulose) (HPC) 101 % of control

Nc1ccc(NS(=O)(=O)c2cccs2)c(O)c1
inactive: dose: 50.0 mg/kg/injection, schedule: Q01DX009 (ip), vehicle: Klucel (hydroxypropylcellulose) (HPC) 97 % of control | dose: 100.0 mg/kg/injection, schedule: Q01DX009 (ip), vehicle: Klucel (hydroxypropylcellulose) (HPC) 94 % of control | dose: 200.0 mg/kg/injection, schedule: Q01DX009 (ip), vehicle: Klucel (hydroxypropylcellulose) (HPC) 105 % of control

CCOC(=O)c1cnc2cc(C(F)(F)F)ccc2c1Nc1ccc2c(c1)OCO2
inactive: [12] 100 % of control | [13] 102 % of control | [14] 98 % of control

CCCCC(NC(=O)CNC(=O)CN)C(=O)O (stereo not drawn) (H-Gly-Gly-[ξNle]-OH)
inactive: [7] 94 % of control | [8] 94 % of control | [9] 93 % of control
